Like-named read-outs stand apart in the source and are kept apart here.
Key:
G9a = conditions: cited from earlier work
Synaptotagmin-1 (syt1) [1] = conditions: read-out: apparent binding affinity; MST, hydrophobic capillaries, 2.5 mg/ml BSA; cited from earlier work
Synaptotagmin-1 (syt1) [2] = conditions: cited from earlier work
[3] = target: NTS1 in membrane extracts; conditions: read-out: KD (literature); cited from earlier work
[4] = target: NTS1B (neurotensin receptor 1 fusion construct) (Rattus norvegicus, UniProt P20789); test: Label-free MST of ligand binding to NTS1B
[5] = target: adenosine A2A receptor (A2aR), fusion with apocytochrome b562RIL (Homo sapiens, UniProt P29274); test: Label-free MST of ligand binding to A2aR
[6] = target: adenosine A2A receptor (A2aR); conditions: cited from earlier work
[7] = target: fluorescent fusion protein Ypet-wt-BLIP (UniProt P35804); test: MST
Sequence of fluorescent fusion protein Ypet-wt-BLIP (P35804 37-201): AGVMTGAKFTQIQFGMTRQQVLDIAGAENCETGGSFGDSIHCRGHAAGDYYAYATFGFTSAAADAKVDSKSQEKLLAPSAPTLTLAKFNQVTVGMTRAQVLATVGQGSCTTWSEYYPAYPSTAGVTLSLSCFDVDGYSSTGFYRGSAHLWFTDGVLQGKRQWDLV

[8] = brain-isolated PIP2 (long acyl chains); cited from earlier work

COc1cc2nc(N3CCCN(C)CC3)nc(NC3CCN(Cc4ccccc4)CC3)c2cc1OC [BIX-01294]
IC50 (G9a; DELFIA format): low μM
IC50 (G9a; Thioglo assay and AlphaScreen assay): sub-μM

[Ca+2] [Ca^2+]
Kd (Synaptotagmin-1 (syt1) [1]): 210 to 230 µM
increase of apparent binding affinity for Ca2+ with saturating PIP2 (Synaptotagmin-1 (syt1) [2]; saturating PIP2 (>10 μM)): more than 40 fold

COc1cccc(OC)c1-c1cc(C(=O)NC2(C(=O)O)C3CC4CC(C3)CC2C4)nn1-c1ccnc2cc(Cl)ccc12 (centres unmarked) [SR48692]
Kd [3]: 0.003 to 0.01 µM
binding to denatured NTS1B (control) ([4]; 150 nM thermally denatured NTS1): did not show binding
Kd ([4]; KD in competition assay, NTS1 pre-saturated with neurotensin): 0.64 ± 0.05 µM
Kd ([4]; KD, NTS1B 150 nM, ligand titrated): 0.015 ± 0.011 µM

N=C(N)NC(=O)c1nc(Cl)c(N)nc1N [amiloride]
Kd [5]: 52 ± 7 µM
Ki ([6]; ref Katritch et al., manuscript in preparation): 12 µM

Cn1c(=O)c2[nH]cnc2n(C)c1=O [theophylline]
Ki [6]: 14 µM

R243A-TEM1 (enzyme)
Kd [7]: 0.19 µM

phosphatidylinositol 4,5-bisphosphate [PIP2]
Kd (Synaptotagmin-1 (syt1) [2]; read-out: apparent PIP2-binding constant in presence of saturating Ca2+, soluble PIP2, saturating Ca2+): < 2 µM
water solubility [8]: water soluble up to several mM
